# Experimental data from patent US20060058350A1, “Alkynyl-substituted azasugar derivative and drug containing the same as the active ingredient” (Carna Biosciences, Inc., priority 2002, published 2006).
# How the values were obtained:
# Type in all cases: biochemical
# [1] = molecular target: T1, TNF-α converting enzyme (TACE) (Homo sapiens, UniProt P78536); experiment: Measurement of inhibitory activity against TNF-α converting enzyme (TACE), fluorescence quenching peptide substrate
# T1 construct: a DNA fragment cording a signal region, a pro-region and a catalytic region was amplified by a PCR method; FLAG octapeptide (C); made in house; host or cells: insect cells (baculovirus, pFastBac)
# T1 sequence (P78536 223-474 limits assumed): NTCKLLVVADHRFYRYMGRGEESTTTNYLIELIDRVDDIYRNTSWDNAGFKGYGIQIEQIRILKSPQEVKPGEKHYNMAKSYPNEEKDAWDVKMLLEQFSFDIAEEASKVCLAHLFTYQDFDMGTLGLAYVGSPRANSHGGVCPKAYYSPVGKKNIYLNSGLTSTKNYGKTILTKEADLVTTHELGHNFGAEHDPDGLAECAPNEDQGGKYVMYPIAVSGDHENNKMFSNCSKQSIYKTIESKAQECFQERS
# Procedure: A full length cDNA for TACE was cloned from THP-1 cells derived from human acute monocytic leukemia and a DNA fragment cording a signal region, a pro-region and a catalytic region was amplified by a PCR method. An appropriate restriction enzyme recognizing sequence was added to both terminals of the amplified fragment and also a sequence of an antigenic octapeptide (FLAG™) tag was inserted in the 3′ terminal. A recombinant bacmid was prepared from the resulting amplified fragment using a pFastBac system (Life Technologies) and then transfected into insect cells to generate a recombinant baculovirus. Insect cells were infected with the recombinant baculovirus and the recombinant TACE released into culture supernatant was purified by an affinity gel column.
# The inhibitory activity was measured according to the method by Van Dyke et al. [Bioorg. […] A solution prepared by dissolving each of test compounds (a) to (f) in dimethylsulfoxide was diluted with a reaction buffer [20 mM tris-HCl buffer (pH 7.5) containing 0.05% Brij-35®] and then 40 μL of the dilute solution was added in a well. […] The inhibition rate (%) at each concentration of an inhibitor was calculated and an IC50 value was determined from the dose-response curve. From this IC50 value and previously determined Km value for a TACE substrate, a Ki value was calculated using data processing software (GraphPad Prism™, GraphPad Software, Inc.).
# MMP-3 = molecular target: T2, MMP-3 (Homo sapiens, UniProt P08254); experiment: Measurement of matrix metalloprotease (MMP) inhibitory activity, MMP-3, fluorescence quenching peptide substrate; settings: recombinant MMP-3 activated with para-aminophenyl mercury acetate; 37° C., 2 hours; Ki calculated from IC50 and Km; read-out: Ki MMP3
# T2 construct: a DNA fragment containing a pro-region and a catalyst region in MMP-3 was also prepared; histidine tag (N); made in house; host or cells: E. coli
# T2 sequence (P08254 100-272 limits assumed): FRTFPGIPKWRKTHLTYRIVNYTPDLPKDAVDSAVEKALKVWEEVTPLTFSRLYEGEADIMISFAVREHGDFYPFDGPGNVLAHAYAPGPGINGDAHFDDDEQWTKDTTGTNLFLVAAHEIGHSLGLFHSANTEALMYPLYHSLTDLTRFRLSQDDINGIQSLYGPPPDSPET
# Procedure: (§1) A DNA fragment coding for catalytic regions in MMP-1 and MMP-9 was amplified by a PCR method with cDNA prepared from HT-1080 cells derived from human fibrosarcoma. In the same manner, a DNA fragment containing a pro-region and a catalyst region in MMP-3 was also prepared. The amplified DNA fragment was cloned into a commercially available expression vector which was designed to allow a histidine tag to add to the N-terminal, and then transformed into E. coli. The resulting transformants were cultured and a recombinant MMP was purified from a cell lysate using Ni-NTA regin (QIAGEN INC.). Recombinant MMP-3 was further activated by reacting with 1 mM para-aminophenyl mercury acetate at 37° C. for one hour.
# (§2) The inhibitory activity was measured according to the method by Night et al. [FEBS Lett. 296, p 263 (1992)] or the method by Nagase et al. [J. Biol. Chem. 269, p 20952 (1994)] using a 96-half well black microplate. A solution prepared by dissolving each of test compounds (a) to (f) in dimethyl sulfoxide was diluted with a reaction buffer [50 mM Tris-HCl (pH 7.5) buffer containing 150 mM NaCl, 10 mM CaCl2, 0.05% Brij-35®] and then 25 μL of the dilute solution was added in a well.
# (§3) After 25 μL of a MMP solution diluted with the reaction buffer was added thereto, the mixture was incubated at 37° C. for 10 minutes. Then, the reaction was initiated by adding 50 μL of a 10 μM fluorescence quenching peptide substrate prepared from the reaction buffer. As the fluorescence quenching peptide substrate, MCA-Pro-Leu-Gly-Leu-DPA-Ala-Arg-NH2 (MCA=7-methoxycoumarin-4-acetyl and DPA=N-3-(2,4-dinitrophenyl)-L-2,3-diaminopropionyl) were used for MMP-1 and MMP-9, and MCA-Arg-Pro-Lys-Pro-Val-Nva-Trp-Arg-Lys (DNP)-NH2 (DNP=2,4-dinitrophenyl) was used for MMP-3. A fluorescence intensity (excitation 320/fluoresecence 405 nm) immediately after the initiation of the reaction and a fluorescence intensity after the reaction at 37° C. (for 2 hours for MMP-1 and MMP-3, for 3 hours for MMP-9) were measured and a difference in fluorescence intensity was taken as an indicator of enzymatic activity. The inhibition rate (%) at each concentration of an inhibitor was calculated and an IC50 value was determined from the dose-response curve. From this IC50 value and previously determined Km value for a […] substrate, a Ki value was calculated using GraphPad Prism software (GraphPad Software, Inc.).
# MMP-9 = molecular target: T3, MMP-9 (Homo sapiens, UniProt P14780); experiment: Measurement of matrix metalloprotease (MMP) inhibitory activity, MMP-9, fluorescence quenching peptide substrate; settings: read-out: Ki MMP9
# T3 construct: A DNA fragment coding for catalytic regions in MMP-1 and MMP-9; histidine tag (N); made in house; host or cells: E. coli
# T3 sequence (P14780 107-444 limits assumed): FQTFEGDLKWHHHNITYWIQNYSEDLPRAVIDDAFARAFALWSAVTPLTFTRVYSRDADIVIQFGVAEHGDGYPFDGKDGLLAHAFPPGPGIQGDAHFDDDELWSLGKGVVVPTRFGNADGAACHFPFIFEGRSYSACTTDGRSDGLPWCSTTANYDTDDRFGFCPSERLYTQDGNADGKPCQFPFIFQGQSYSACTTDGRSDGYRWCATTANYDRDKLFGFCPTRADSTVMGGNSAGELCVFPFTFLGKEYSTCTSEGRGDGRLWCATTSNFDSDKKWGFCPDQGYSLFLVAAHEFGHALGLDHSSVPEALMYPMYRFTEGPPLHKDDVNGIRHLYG
# Procedure: as §1, §2, §3
# MMP-1 = molecular target: T4, MMP-1 (Homo sapiens, UniProt P03956); experiment: Measurement of matrix metalloprotease (MMP) inhibitory activity, MMP-1, fluorescence quenching peptide substrate; settings: recombinant catalytic region of MMP-1; 37° C., 2 hours; Ki calculated from IC50 and Km; read-out: Ki MMP1
# T4 construct: A DNA fragment coding for catalytic regions in MMP-1 and MMP-9; histidine tag (N); made in house; host or cells: E. coli
# T4 sequence (P03956 98-276 limits assumed): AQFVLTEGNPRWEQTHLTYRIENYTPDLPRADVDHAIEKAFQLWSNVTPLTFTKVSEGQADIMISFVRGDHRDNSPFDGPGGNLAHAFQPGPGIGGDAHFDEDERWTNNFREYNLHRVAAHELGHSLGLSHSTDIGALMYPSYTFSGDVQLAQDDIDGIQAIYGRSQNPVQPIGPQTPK
# Procedure: as §1, §2, §3
Compound,Ki [1] [µM],Ki (MMP-3) [µM],Ki (MMP-9) [µM],Ki (MMP-1) [µM]
"CC#CCOc1ccc(S(=O)(=O)N2C[C@H](OC)[C@H](O)[C@@H](O)[C@@H]2C(=O)NO)cc1 [Compound (c), (2R,3S,4R,5S)-1-(4′-but-2′-ynyloxybenzenesulfonyl)-3,4-dihydroxy-5-methoxypiperidine-2-carboxylic acid hydroxamide]",0.0024,> 0.65,> 0.79,> 0.85
"CO[C@@H]1[C@@H](O)[C@@H](O)CN(S(=O)(=O)c2ccc(OCC#CCO)cc2)[C@H]1C(=O)NO [Compound (f), (2R,3S,4S,5S)-4,5-dihydroxy-1-[4′-(4″-hydroxy-but-2′-ynyloxy)benzenesulfonyl]-3-methoxy-piperidine-2-carboxylic acid hydroxamide]",0.018,> 0.65,> 0.79,> 0.85
"CC#CCOc1ccc(S(=O)(=O)N2C[C@H](O)[C@H](O)[C@@H](OCC)[C@@H]2C(=O)NO)cc1 [Compound (e), (2R,3S,4S,5S)-1-(4′-but-2′-ynyloxybenzenesulfonyl)-4,5-dihydroxy-3-ethoxypiperidine-2-carboxylic acid hydroxamide]",0.0085,> 0.65,> 0.79,> 0.85
"CC#CCOc1ccc(S(=O)(=O)N2C[C@H](O)[C@H](O)[C@@H](OC)[C@@H]2C(=O)NO)cc1 [Compound (a), (2R,3S,4S,5S)-1-(4′-but-2′-ynyloxybenzenesulfonyl)-4,5-dihydroxy-3-methoxypiperidine-2-carboxylic acid hydroxamide]",0.0043,> 0.65,> 0.79,> 0.85
"CC#CCOc1ccc(S(=O)(=O)N2C[C@H](O)[C@H](O)[C@@H](O)[C@@H]2C(=O)NO)cc1 [Compound (d), (2R,3S,4S,5S)-1-(4′-but-2′-ynyloxybenzenesulfonyl)-3,4,5-trihydroxy-piperidine-2-carboxylic acid hydroxamide]",,0.49,> 0.79,> 0.85
"CC#CCOc1ccc(S(=O)(=O)N2C[C@H](O)[C@H](O)[C@@H](OCc3ccccc3)[C@@H]2C(=O)NO)cc1 [Compound (b), (2R,3S,4S,5S)-3-benzyloxy-1-(4′-but-2′-ynyloxybenzenesulfonyl)-4,5-dihydroxypiperidine-2-carboxylic acid hydroxamide]",0.0094,> 0.65,> 0.79,> 0.85
